Consider three molecules from patent publication US9963476B2, “Antioxidant compound having anti atherosclerotic effect and preparation thereof” (Council of Scientific and Industrial Research, priority 2015, dated 2018).

In data set [1] the test system is human aortic endothelial cells (HAEC). In words: Trypan blue cell viability assay, oxidant-induced endothelial cell death. The settings on record: 2.5 μM, 2 h pretreatment, H2O2 500 μM or Ang-II 500 nM, 24 h. Type of data set: cell-based. The protocol: Human aortic endothelial cells (HAECs) were obtained from ATCC (Manassas, Va.) and maintained (37° C. 5% CO2) in basal medium supplemented with 10% FBS, VEGF (5 ng/mL), hEGF (5 ng/mL), hFGF (5 ng/mL), IGF-1 (15 ng/mL), ascorbic acid (50 μg/mL), hydrocortisone (1 μg/mL), amphotericin (15 ng/mL), gentamicin (30 ng/mL) and heparin (0.75 Units/mL). Cells used in this study were between passages 4 and 9. Esculetin, Mito-Esc, TPP and nitric oxide synthase inhibitor (L-NAME) were added 2 h before the addition of H2O2 or Ang-II.
At the end of the treatments, cells were harvested and re-suspended in 0.4% trypan blue (Life Technologies) and percent cell viability was counted using cell countess chamber (Life Technologies).
For this, cells were pretreated for 2 h with either Mito-Esc or esculetin before they were incubated with either H2O2 or Ang-II.

The test system of data set [2] is Ang-II-induced atherosclerosis in ApoE−/− mice. The data set can be described thus: Serum lipid profile of Ang-II treated ApoE−/− mice. The data set is classed as in vivo. The settings on record: serum, ApoE−/− mice, 45 days; Ang-II alone or Ang-II + Mito-Esc.
Method: Experiments were conducted in 2-month-old male apolipoprotein E knockout (ApoE^−/−) mice according to the guidelines formulated for care and use of animals in scientific research (ICMR, New Delhi, India) at a CPCSEA (Committee for the Purpose of Control and Supervision of Experiments on Animals) registered animal facility. […] Animals were randomly divided into 3 groups each n=7:1) control 2) Ang-II treatment and 3) Mito-Esculetin+Ang-II treatment. Ang-II and Mito-Esculetin treatment groups received Ang-II (sigma) at a dose of 1.44 mg/kg/day for 6 weeks through sub-cutaneous route where as control group received normal saline. Mito-Esculetin treatment group received the compound at a dose of 0.5 mg/kg/day in normal drinking water. All animals were fed on normal chow throughout the study. After 6 weeks, all groups of animals were sacrificed as per standard protocols for euthanasia.
We further analyzed the vascular remodelling employing histological stains in tissue sections of thoracic aortas. […] In tune with this, we have also measured Mac-3 levels by flow cytometry.
Data set [3] deals with Ang-II-induced H2O2 production in HAEC. The data set can be described thus: H2O2 levels by Amplex red assay. Type of data set: cell-based, human. The settings on record: Ang-II 500 nM, 16 h. The protocol: Amplex red reagent was used to detect the released H2O2 from cells. […] Immediately, formation of resorufin fluorescence was measured in multi mode reader (PerkinElmer) with λex=540 and λem=585.
Ang-II is known to increase oxidative stress through increased production of H2O2 (Doughan A K, Harrison D G, Dikalov S I. Circ Res (2008) 102:488-96). […] Further, we assessed the effect of Mito-Esc on H2O2-induced mitochondrial membrane depolarization. HAEC were treated with H2O2 (500 μM) in the presence or absence of Mito-Esc for a period of 16 h and mitochondrial membrane potential was measured using a mitochondrial membrane sensor kit. Mito-Sensor is a cationic dye that fluoresces differently in apoptotic and nonapoptotic cells. […] In apoptotic cells, membrane potentials are altered and the Mito-Sensor dye cannot accumulate in mitochondria and, thus, remain as monomers leading to a green fluorescence.

The test system of another data set is HAEC. The data set can be described thus: Cellular uptake: Mito-Esc/esculetin quantified by ESI-MS in cytosolic and mitochondrial fractions of HAEC. Type of data set: in vitro ADME, human. The settings on record: HAEC, 2.5 μM, 24 h. The protocol: After the treatment, cells were washed thrice with PBS. Similarly Mito-Esculetin+ Ang-II treatment group, Ang-II alone treatment group and control Apo E^−/− mice aortic tissue was taken. The isolation of mitochondrial and cytosolic extracts was carried out using a commercially available Proteo Extract Cytosol/Mitochondria Fractionation Kit (Cat. no. QIA88-Merck, USA) according to manufacturer's instructions. Initially, mitochondrial and cytosolic fractions were separated using a commercially available kit as mentioned elsewhere. Mito-Esc was quantified in the mitochondrial and cytosolic fractions obtained from HAEC and aorta of ApoE^−/− mice of different treatment groups as mentioned in Animal Experiments section (Table-1). Electrospray ionization (ESI)-MS. ESI-MS (positive mode) measurements were performed using a quadrupole time-of-flight mass spectrometer (QSTAR XL, Applied Biosystems/MDS Sciex, Foster City, Calif., USA). The data acquisition was under the control of Analyst QS software (Applied Biosystems). For the CID (collision-induced dissociation) experiments, the precursor ions were selected using the quadrupole analyzer and the product ions were analyzed using the TOF analyzer.

Data set [4] relates to caspase-3 and -8 activation in HAEC. The data set can be described thus: Caspase-3 and -8 activity in HAEC lysates. The data set is classed as cell-based, human. The settings on record: 2.5 μM pretreatment.
Method: HAEC were washed twice with cold DPBS and lysed in buffer containing 10-mM Tris-HCl, 10-mM NaH2PO4/Na2HPO4 (pH, 7.5). 130-mM NaCl. 1% Triton, and 10-mM sodium pyrophosphate. Cell lysates were incubated with either with caspase-3 fluorogenic substrate (N-acetyl-Asp-Glu-Val-Asp-7-amido-4-methylcoumarin) or caspase-8 fluorogenic substrate (N-acetyl-Ileu-Glu-Thr-Asp-7 amido-4-methylcoumarin) at 37° C. for 1 h. The 7-amido-4-methyl-coumarin liberated was measured in a multi mode reader (PerkinElmer) with λex=380 nm and λem=460 nm.
In data set [5] the test system is nitric oxide generation in HAEC. In words: Intracellular nitric oxide levels by DAF-2DA fluorescence. Type of data set: cell-based, human. The settings on record: H2O2 500 μM, 2.5 μM, 4 h. The protocol: Intracellular nitric oxide levels were monitored by using the Diaminofluorescein-diacetate (DAF-2DA) fluorescence probe. After the treatments, cells were washed with DPBS and incubated in fresh culture medium without fetal bovine serum (FBS). DAF-2DA was added at a final concentration of 5 μM, and the cells were incubated for 30 minutes. The cells were washed twice with DPBS and maintained in culture medium. Fluorescence was monitored by using Olympus fluorescence microscope with FITC filter (λex=488 nm and […]). Fluorescence intensity was calculated by Image-Pro plus7.0 software.
To gain mechanistic insight on Mito-Esc-mediated protection of endothelial cells from oxidant-induced endothelial cell death, initially we hypothesized that Mito-Esc may augment intracellular nitric oxide generation. To study this, HAEC were treated with both Mito-Esc and esculetin in the presence or absence of H2O2 for a period of 4 h and nitric oxide (NO) levels were monitored by DAF-2 derived green fluorescence. Previously, it has been shown that DAF-2 forms a fluorescent triazole-type product in the presence of an oxidant derived from nitric oxide and oxygen interaction (Proc. Natl. Acad. Sci. USA 99: 11127-11132; 2002.; Am. J. Physiol. Regul. Integ. Comp. Physiol. 286:R344-R431; 2004). […] Next, we investigated the possible role of endothelial nitric oxide synthase (eNOS) in mediating the Mito-Esc induced NO generation in HAEC. For this, endothelial cells were treated with various concentrations of Mito-Esc (1-5 μM) for a period of 8 h. […] To further substantiate the results of DAF fluorescence, eNOS phosphorylation was measured in HAEC incubated with either with H2O2 or Ang-II for 8 h in cells pretreated with Mito-Esc or native esculetin. It was observed that both H2O2 and Ang-II caused a reduction in Phospho eNOS (Ser-1177) levels (FIG. 4D). Ang-II treatment imposed a drastic inhibition of phospho-eNOS levels when compared to H2O2 treatment in endothelial cells (FIG. 4D).

The test system of data set [6] is AMPK1-α phosphorylation (Thr-172). In words: Western blot of AMPK phosphorylation in HAEC. The data set is classed as cell-based, human. The settings on record: H2O2 500 μM, 2.5 μM, 8 h. The method, then: Previously, it was shown that AMPK co-immunoprecipitates with cardiac endothelial NO synthase (eNOS) and phosphorylates Ser-1177 in the presence of Ca^2+-calmodulin (CaM) to activate eNOS both in vitro and during ischaemia in rat hearts (FEBS Lett. (1999) 443:285-289). To test whether Mito-Esc mediates increased phosphorylation of eNOS through AMPK activation, initially, HAEC were treated various concentrations of Mito-Esc (1-5 μM) for 8 h and AMPK1-α phosphorylation (Thr-172) levels were measured. […] Next, we investigated the phospho-AMPK1-α levels in HAEC treated with H2O2 in the presence or absence of either Mito-Esc or native esculetin.
On the technique in general: In western blotting, separated proteins are transferred to a membrane and probed.

Take `c1ccc(P(c2ccccc2)c2ccccc2)cc1` [TPP^+, triphenylphosphonium cation]: the “oxidant (H2O2 and Ang-II)-induced endothelial cell death” value in data set [1] was “did not have any appreciable cytotoxic/cytoprotective effect”.
Take “Angiotensin-II (DRVYIHPF; Angiotensin-2; UniProt P01019 25-32, looked up) [Ang-II, inducer of oxidative stress and atherosclerosis in the models, reference compound]”: in data set [2], the HDL was determined as 02.21 ± 1.2 mg/dL, the LDL was found to be 423.93 ± 29.6 mg/dL, the “Total Cholesterol” value is 656.19 ± 34.2 mg/dL and the Triglycerides was found to be 234.50 ± 21.5 mg/dL. In addition, the VLDL in data set [2] is recorded as 46.9 ± 2.2 mg/dL. The “H2O2 generation compared to untreated conditions” value in data set [3] was “around 2.7 fold”.
In the case of `O=c1ccc2cc(O)c(O)cc2o1` [Esculetin, 6,7-dihydroxycoumarin, reference compound], in the data set with HAEC, the Cytosolic fraction amounted to 6249 ± 235 nmol/mg protein. Moreover, the “oxidant (H2O2 and Ang-II)-induced endothelial cell death” value in data set [1] is given as “but not esculetin significantly inhibited”. Further, the “H2O2 and Ang-II-induced caspase-3 and -8 activation” value in data set [4] is given as “marginal effect”. Further, the “H2O2-mediated depletion of NO levels” value in data set [5] is recorded as “did not show any noticeable effect”. In addition, in data set [6], the “AMPK1-α phosphorylation in the presence of H2O2” value was “significantly decreased”.
